In patent publication US20260337153A1, “IONIZABLE AMINE LIPIDS” (Intellia Therapeutics, Inc., priority 2023, published 2026):

System: rat TTR gene
Assay: In vivo editing of TTR in rat liver after LNP delivery (NGS, % editing)
Design: species or system rat (Sprague-Dawley)
Details: NGS, dose 0.03 mpk, LNP with G000534 sgRNA and Cas9 mRNA 1:2 w/w, 3% C13 Ether (Compound 53: 3% PEG2K-DMG), N=5 (Compound 33: N=4)
How it was run: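 Four-component LNPs (ionizable amine lipid, DSPC, cholesterol, PEG lipid) carried Cas9 mRNA and a chemically modified sgRNA against rat TTR, made by impinging jet mixing at an N:P near 6. They were injected into the lateral tail vein of female Sprague-Dawley rats. Liver genomic DNA collected at 6 or 7 days was amplicon-sequenced on Illumina MiSeq to calculate percent indels.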

Row | SMILES | Mean % editing in rat liver
1 | CCCCCCCCC(CCCCCCCC)OC(=O)CCCCCCC(=O)OCC(CC)(COC(=O)CCCCCCC(=O)OC(CCCCCCCC)CCCCCCCC)COC(=O)OCCCN1CCCC1 [Compound 67, O′1,O1-(2-ethyl-2-((((3-(pyrrolidin-1-yl)propoxy)carbonyl)oxy)methyl)propane-1,3-diyl) 8,8′-di(heptadecan-9-yl) di(octanedioate)] | 1.6%
2 | CCCCCCCCC(CCCCCCCC)OC(=O)CCCCC(=O)OCC(COC(=O)CCCCC(=O)OC(CCCCCCCC)CCCCCCCC)COC(=O)NCCN(CC)CC [Compound 68, O,O′-(2-((((2-(diethylamino)ethyl)carbamoyl)oxy)methyl)propane-1,3-diyl) di(heptadecan-9-yl) diadipate] | 17.1%
